Test results reported in ChEMBL document CHEMBL5724914, “Linking interpersonal differences in gut microbiota composition and drug biotransformation activity” (2024).

Legend:
[1] = human gut metagenome, 24 h, 2 µM
[2] = (§1) The drug is tested on Z-025 corresponding to rabbit gut metagenome with ENA study accession number: PRJEB37062 and ENA sample accession number: ERS12561824 for biotransformation under anaerobic condition. The drug concentrations were measured over 9 timepoints collected between 0 and 24 hours of incubation by liquid-chromatography-coupled mass spectrometry (LC–MS); details: 2 µM
[3] = as §1, with “WLS-240” for “Z-025”, “human” for “rabbit”, “ERS12561773” for “ERS12561824”; details: 2 µM
[4] = as §1, with “WLS-038” for “Z-025”, “human” for “rabbit”, “ERS12561745” for “ERS12561824”; details: 2 µM
[5] = as §1, with “WLS-007” for “Z-025”, “human” for “rabbit”, “ERS12561742” for “ERS12561824”; details: 2 µM
[6] = human gut metagenome, 24 h, 2 µM; remark: listed apart in the source
[7] = human gut metagenome, 24 h, 2 µM; remark: listed apart in the source
[8] = human gut metagenome, 24 h, 2 µM; remark: listed apart in the source
[9] = human gut metagenome, 24 h, 2 µM; remark: listed apart in the source
[10] = as §1, with “Z-001” for “Z-025”, “mouse” for “rabbit”, “ERS12561801” for “ERS12561824”; details: 2 µM
[11] = as §1, with “Z-027” for “Z-025”, “to” for “to rabbit gut”, “ERS12561826” for “ERS12561824”; details: 2 µM
[12] = human gut metagenome, 24 h, 2 µM; remark: listed apart in the source
[13] = as §1, with “WLS-310” for “Z-025”, “human” for “rabbit”, “ERS12561785” for “ERS12561824”; details: 2 µM
[14] = human gut metagenome, 24 h, 2 µM; remark: listed apart in the source
[15] = human gut metagenome, 24 h, 2 µM; remark: listed apart in the source
[16] = human gut metagenome, 24 h, 2 µM; remark: listed apart in the source
[17] = as §1, with “Z-014” for “Z-025”, “rat” for “rabbit”, “ERS12561814” for “ERS12561824”; details: 2 µM
[18] = as §1, with “Z-011” for “Z-025”, “mouse” for “rabbit”, “ERS12561811” for “ERS12561824”; details: 2 µM
[19] = as §1, with “Z-007” for “Z-025”, “rat” for “rabbit”, “ERS12561807” for “ERS12561824”; details: 2 µM
Further: call rule not given here.

| SMILES | Bacterial Biotransformation [1] | Bacterial Biotransformation [2] | Bacterial Biotransformation [3] | Bacterial Biotransformation [4] | Bacterial Biotransformation [5] | Bacterial Biotransformation [6] | Bacterial Biotransformation [7] | Bacterial Biotransformation [8] | Bacterial Biotransformation [9] | Bacterial Biotransformation [10] | Bacterial Biotransformation [11] | Bacterial Biotransformation [12] | Bacterial Biotransformation [13] | Bacterial Biotransformation [14] | Bacterial Biotransformation [15] | Bacterial Biotransformation [16] | Bacterial Biotransformation [17] | Bacterial Biotransformation [18] | Bacterial Biotransformation [19] |
| --- | --- | --- | --- | --- | --- | --- | --- | --- | --- | --- | --- | --- | --- | --- | --- | --- | --- | --- | --- |
| CN1CCc2cccc3c2[C@H]1Cc1ccc(O)c(O)c1-3 [APOMORPHINE] | Compound NOT metabolized | Compound metabolized | Compound NOT metabolized | Compound NOT metabolized | Compound NOT metabolized | Compound NOT metabolized | Compound NOT metabolized | Compound NOT metabolized | Compound NOT metabolized | Compound NOT metabolized | Compound NOT metabolized | Compound NOT metabolized | Compound NOT metabolized | Compound NOT metabolized | Compound NOT metabolized |  |  |  |  |
| OC(CCN1CCCCC1)(c1ccccc1)C1CC2C=CC1C2 (stereo unspecified) [BIPERIDEN] | Compound metabolized |  | Compound NOT metabolized | Compound NOT metabolized | Compound NOT metabolized | Compound metabolized | Compound NOT metabolized | Compound NOT metabolized | Compound metabolized |  |  | Compound NOT metabolized | Compound metabolized | Compound metabolized | Compound metabolized | Compound NOT metabolized |  |  |  |
| CS(=O)(=O)O.O.O.O.O=C1Cc2cc(CCN3CCN(c4nsc5ccccc45)CC3)c(Cl)cc2N1 [ZIPRASIDONE MESYLATE] | Compound metabolized |  | Compound metabolized | Compound metabolized | Compound NOT metabolized | Compound NOT metabolized | Compound NOT metabolized | Compound metabolized | Compound metabolized |  |  | Compound NOT metabolized | Compound metabolized | Compound NOT metabolized | Compound metabolized | Compound NOT metabolized |  |  |  |
| C#C[C@]1(O)CC[C@H]2[C@@H]3CCC4=Cc5oncc5C[C@]4(C)[C@H]3CC[C@@]21C [DANAZOL] |  | Compound metabolized | Compound metabolized | Compound metabolized | Compound metabolized |  | Compound metabolized | Compound metabolized | Compound metabolized |  | Compound metabolized |  | Compound metabolized |  |  | Compound metabolized | Compound NOT metabolized |  |  |
| Cc1nc2n(c(=O)c1CCN1CCC(c3noc4cc(F)ccc34)CC1)CCCC2O (stereo unspecified) [PALIPERIDONE] | Compound metabolized |  | Compound metabolized | Compound metabolized | Compound metabolized | Compound metabolized | Compound metabolized | Compound metabolized | Compound metabolized | Compound NOT metabolized | Compound NOT metabolized | Compound metabolized | Compound metabolized | Compound metabolized | Compound metabolized | Compound metabolized | Compound NOT metabolized | Compound NOT metabolized |  |
| CC(=O)O[C@]1(C(C)=O)CC[C@H]2[C@@H]3C=C(Cl)C4=CC(=O)[C@@H]5C[C@@H]5[C@]4(C)[C@H]3CC[C@@]21C [CYPROTERONE ACETATE] | Compound metabolized |  | Compound metabolized | Compound metabolized | Compound metabolized | Compound metabolized | Compound metabolized | Compound metabolized | Compound metabolized | Compound metabolized |  | Compound metabolized | Compound metabolized | Compound NOT metabolized | Compound metabolized | Compound metabolized |  | Compound metabolized |  |
| C[C@@H]1CC[C@H]2[C@@H](C)C(=O)O[C@@H]3O[C@@]4(C)CC[C@@H]1[C@]32OO4 [ARTEMISININ] | Compound metabolized |  | Compound metabolized | Compound metabolized | Compound metabolized | Compound metabolized | Compound metabolized | Compound NOT metabolized |  |  | Compound metabolized | Compound metabolized | Compound metabolized | Compound metabolized | Compound metabolized | Compound metabolized | Compound metabolized |  |  |
| CN1C[C@H](C(=O)N[C@]2(C)O[C@@]3(O)[C@@H]4CCCN4C(=O)[C@H](Cc4ccccc4)N3C2=O)C=C2c3cccc4[nH]cc(c34)C[C@H]21.CN1C[C@H](C(=O)N[C@]2(C)O[C@@]3(O)[C@@H]4CCCN4C(=O)[C@H](Cc4ccccc4)N3C2=O)C=C2c3cccc4[nH]cc(c34)C[C@H]21.O=C(O)C(O)C(O)C(=O)O [ERGOTAMINE TARTRATE] |  |  | Compound metabolized | Compound NOT metabolized | Compound metabolized | Compound metabolized | Compound metabolized | Compound metabolized | Compound metabolized |  |  | Compound NOT metabolized | Compound metabolized | Compound metabolized | Compound metabolized | Compound NOT metabolized |  |  | Compound NOT metabolized |
| CN1CCN(CC/C=C2/c3ccccc3Sc3ccc(S(=O)(=O)N(C)C)cc32)CC1 [THIOTHIXENE] | Compound metabolized |  | Compound metabolized | Compound metabolized | Compound NOT metabolized | Compound metabolized | Compound metabolized | Compound metabolized | Compound NOT metabolized |  |  | Compound metabolized | Compound metabolized | Compound metabolized | Compound metabolized | Compound metabolized |  |  |  |
| COC(=O)C1=C(C)NC(C)=C(C(=O)OC(C)C)C1c1cccc2nonc12 (stereo unspecified) [ISRADIPINE] | Compound metabolized |  | Compound metabolized | Compound NOT metabolized | Compound metabolized | Compound metabolized | Compound NOT metabolized | Compound metabolized | Compound metabolized | Compound NOT metabolized |  | Compound metabolized | Compound metabolized | Compound NOT metabolized | Compound metabolized | Compound metabolized |  |  |  |
| CN(C(=O)CN(CCO)CC(=O)N(C)C(C)(C)Cc1ccccc1)C(C)(C)Cc1ccccc1 [OXETHAZAINE] | Compound metabolized |  | Compound metabolized | Compound metabolized | Compound NOT metabolized | Compound metabolized | Compound NOT metabolized | Compound metabolized | Compound metabolized |  |  | Compound metabolized | Compound metabolized | Compound metabolized | Compound metabolized | Compound metabolized |  |  |  |
